ChEMBL document CHEMBL4396952, “Xanthone, benzophenone and bianthrone derivatives from the hypersaline lake-derived fungus Aspergillus wentii” (Bioorg Med Chem, 2019)
Active and inactive are the calls of the source.

Legend:
Klebsiella aerogenes = assay: Antibacterial activity against Enterobacter aerogenes; assay type: functional, organism-based
A2780S [1] = assay: Cytotoxicity against human A2780S cells at 100 uM; assay type: functional, cell-based
Pseudomonas aeruginosa = assay: Antibacterial activity against Pseudomonas aeruginosa; assay type: functional, organism-based
Enterococcus faecium = assay: Antibacterial activity against Enterococcus faecium; assay type: functional, organism-based
Klebsiella pneumoniae = assay: Antibacterial activity against Klebsiella pneumoniae; assay type: functional, organism-based
Acinetobacter baumannii = assay: Antibacterial activity against Acinetobacter baumannii; assay type: functional, organism-based
Escherichia coli = assay: Antibacterial activity against Escherichia coli; assay type: functional, organism-based
A2780S [2] = assay: Cytotoxicity against human A2780S cells at 10 ug/ml; assay type: functional, cell-based
L5178Y [3] = assay: Cytotoxicity against mouse L5178Y cells at 10 ug/ml; assay type: functional, cell-based
L5178Y [4] = assay: Cytotoxicity against mouse L5178Y cells at 100 uM; assay type: functional, cell-based
L5178Y [5] = assay: Cytotoxicity against mouse L5178Y cells at 10 uM; assay type: functional, cell-based
Staphylococcus aureus = assay: Antibacterial activity against Staphylococcus aureus ATCC 29213; assay type: functional, organism-based
A2780S [6] = assay: Cytotoxicity against human A2780S cells at 10 uM; assay type: functional, cell-based
[7] = system: Mycobacterium tuberculosis; assay: Antitubercular activity against Mycobacterium tuberculosis H37Rv; assay type: functional, organism-based

Measured: Activity

Cc1cc2cc(O)cc(O)c2c2oc(=O)cc(O)c12
inactive: Klebsiella aerogenes | A2780S [1] | Pseudomonas aeruginosa | Enterococcus faecium | Klebsiella pneumoniae | Acinetobacter baumannii | Escherichia coli | A2780S [2] | L5178Y [3] | L5178Y [4] | L5178Y [5] | Staphylococcus aureus | A2780S [6] | [7]

COC(=O)c1cc(O)cc(OC)c1C(=O)c1c(O)cc(C)cc1O
inactive: Klebsiella aerogenes | A2780S [1] | Pseudomonas aeruginosa | Enterococcus faecium | Klebsiella pneumoniae | Acinetobacter baumannii | Escherichia coli | A2780S [2] | L5178Y [3] | L5178Y [4] | L5178Y [5] | Staphylococcus aureus | A2780S [6] | [7]

Cc1cc2c(c(O)c1C(=O)OC[C@@H](O)CO)C(=O)c1c(O)cc(O)cc1C2=O
inactive: Klebsiella aerogenes | A2780S [1] | Pseudomonas aeruginosa | Enterococcus faecium | Klebsiella pneumoniae | Acinetobacter baumannii | Escherichia coli | A2780S [2] | L5178Y [3] | L5178Y [4] | L5178Y [5] | Staphylococcus aureus | A2780S [6] | [7]

COc1cc(C(=O)O)c2c(=O)c3c(O)cc(C)cc3oc2c1
inactive: Klebsiella aerogenes | A2780S [1] | Pseudomonas aeruginosa | Enterococcus faecium | Klebsiella pneumoniae | Acinetobacter baumannii | Escherichia coli | A2780S [2] | L5178Y [3] | L5178Y [4] | L5178Y [5] | Staphylococcus aureus | A2780S [6] | [7]

COC(=O)c1cc(C)c(C(=O)OC[C@@H](O)CO)c(OC)c1C(=O)c1c(C)cc(O)cc1O
inactive: L5178Y [3] | L5178Y [4] | L5178Y [5] | [7]

COC(=O)c1cc(C)c(C(=O)OC[C@@H](O)CO)c2oc3cc(O)cc(O)c3c(=O)c12
inactive: L5178Y [3] | L5178Y [4] | L5178Y [5] | [7]

COc1cc(OC)c2c(c1)C(=O)c1cc(C)cc(O)c1C2=O
inactive: A2780S [1] | A2780S [2] | L5178Y [3] | L5178Y [4] | L5178Y [5] | A2780S [6] | [7]
